Columns and labels:
HCT116 cells = experiment: Measurement of growth inhibitory activity using HCT116 cell; type: cell-based; details: Homo sapiens, HCT-116, 72 h, 1 μM compound, 3 days, CellTiter-Glo, read-out: Rate of inhibition of cell growth at compound concentration of 1 μM
Method: Measurement of Growth Inhibitory Activity Using HCT116 Cell
Each compound was evaluated for its growth inhibitory activity against HCT116 cells (ATCC) by the following method: the HCT116 cells were inoculated at 900 cells/40 μL/well to a 384-well white plate (Greiner Bio-one) and maintained in an assay medium (RPMI medium (Wako Pure Chemical Industries, Ltd.) containing 2% fetal bovine serum, 50 units/mL penicillin and 50 μg/mL streptomycin (Invitrogen Corp.)). On the next day, the test compound dissolved in dimethyl sulfoxide (DMSO) was dispensed to the plate using TECAN D300 digital dispenser (Tecan Trading AG). Then, the concentration of DMSO in the medium was adjusted to 0.1% by the addition of DMSO. The HCT116 cells supplemented with the compound were incubated at 37° C. in a 5% CO2 environment (test compound addition group).
Also, the same reaction as above was carried out without the addition of the test compound (test compound non-addition group).
Further, the same reaction as above was carried out on condition that neither the HCT116 cells nor the test compound were added (control group).
After 3 days, 20 μL of CellTiter-Glo reagent (Promega Corp.) was added to each well, and the mixture was stirred for 10 minutes. Then, the light emission of each well was measured using ARVO MX1420 (PerkinElmer, Inc.).
The rate of inhibition of HCT116 cell growth (%) was determined according to the following calculation expression:
Rate of inhibition of cell growth=(1−(Light emission of the test compound addition group−Light emission of the control group)/(Light emission of the test compound non-addition group−Light emission of the control group))×100

SCD = biological target: T1, SCD (Homo sapiens, UniProt O00767); experiment: Measurement of SCD inhibitory activity using human large intestine cancer cell line (HCT116 cell); type: cell-based; details: HCT-116; 1 μM compound; HCT116 cells; [14C]stearic acid, 3 hours; read-out: Rate of inhibition of SCD activity at compound concentration of 1 μM
T1 construct: HCT116 (ATCC (American Type Culture Collection)) was inoculated at 1×10^5 cells/well to a 96-well plate; host or cells: HCT116
T1 sequence (O00767 1-359): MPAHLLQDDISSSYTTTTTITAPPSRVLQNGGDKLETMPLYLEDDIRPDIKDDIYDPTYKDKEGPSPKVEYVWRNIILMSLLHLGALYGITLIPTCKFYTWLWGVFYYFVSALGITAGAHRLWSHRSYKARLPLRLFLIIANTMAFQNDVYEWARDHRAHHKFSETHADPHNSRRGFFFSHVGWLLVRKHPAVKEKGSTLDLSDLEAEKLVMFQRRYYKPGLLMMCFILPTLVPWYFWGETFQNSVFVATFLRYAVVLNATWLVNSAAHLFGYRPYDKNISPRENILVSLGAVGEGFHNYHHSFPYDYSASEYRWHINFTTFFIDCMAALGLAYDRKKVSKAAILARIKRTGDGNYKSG
Method: Measurement of SCD Inhibitory Activity Using Human Large Intestine Cancer Cell Line (HCT116 Cell)
HCT116 (ATCC (American Type Culture Collection)) was inoculated at 1×10^5 cells/well to a 96-well plate and cultured overnight in DMEM (Dulbecco's modified Eagle medium) containing 10% FBS (fetal bovine serum) (AusGeneX PTY LTD.). After the culture, each well was washed twice with phosphate-buffered saline (PBS) (200 μL). Then, a reaction medium (DMEM, penicillin/streptomycin, 0.3% BSA) containing 1.5 μM of the test compound was added thereto at 40 μL/well, and the plate was left standing for 15 minutes in a CO2 incubator (37° C.). A reaction medium containing 0.1 μCi of [^14C]stearic acid was added at 20 μL/well to the plate thus left standing, and the plate was left standing for 3 hours in a CO2 incubator (37° C.). Each well of the plate thus left standing was washed twice with 200 μL of PBS. Then, 2.5 N NaOH was added thereto at 20 μL/well, and the plate was provided with a plate seal and then incubated overnight in a heat sterilizer set to 55° C. A formic acid:methanol:chloroform (1:16:4) solution was added at 200 μL/well to the plate thus left standing. Further, the mixture in each well was separated into two layer by the addition of 200 μL of pure water. After the separation, a 10 μL aliquot was separated from the lower layer, spotted on a reverse-phase TLC plate (RP-18, 1154230001, Merck KGaA), and developed with an acetonitrile:pure water:acetic acid (95:4.5:0.5) solution. After drying, the TLC plate was transferred to Imaging Plate (Fuji Photo Film) for 5 hours or longer. Detection was carried out using FLA7000 (GE Healthcare Japan Corp.), and the obtained spot images were digitalized using ImageQuant TL (GE Healthcare Japan Corp.) to determine the rate of inhibition of SCD activity (%).

SMILES	inhibition at 1 µM (SCD)	inhibition at 1 µM (HCT116 cells)
N#CC1(c2ccc(S(F)(F)(F)(F)F)cc2)CCN(c2ccc(-c3nnc(CO)o3)nn2)CC1 [Example 58, 1-(6-(5-(Hydroxymethyl)-1,3,4-oxadiazol-2-yl)pyridazin-3-yl)-4-(4-(pentafluorosulfanyl)phenyl)piperidine-4-carbonitrile]	97%	88%
OCc1nnc(-c2ccc(N3CCC(c4ccc(C(F)(F)F)cc4)(C(F)(F)F)CC3)nn2)o1 [Example 84, (5-(6-(4-(Trifluoromethyl)-4-(4-(trifluoromethyl)phenyl)piperidin-1-yl)pyridazin-3-yl)-1,3,4-oxadiazol-2-yl)methanol]	99%	88%
COC1(c2ccc(S(F)(F)(F)(F)F)cc2)CCN(c2ccc(-c3nnc(CO)o3)nn2)CC1 [Example 93, (5-(6-(4-Methoxy-4-(4-(pentafluorosulfanyl)phenyl)piperidin-1-yl)pyridazin-3-yl)-1,3,4-oxadiazol-2-yl)methanol]	99%	85%
OCc1noc(-c2ccc(N3CCC(c4ccc(C(F)(F)F)cc4)(C(F)(F)F)CC3)nn2)n1 [Example 82, (5-(6-(4-(Trifluoromethyl)-4-(4-(trifluoromethyl)phenyl)piperidin-1-yl)pyridazin-3-yl)-1,2,4-oxadiazol-3-yl)methanol]	99%	89%
N#CC1(c2ccc(S(F)(F)(F)(F)F)cc2)CCN(c2ccc(-c3nnc(CO)s3)nn2)CC1 [Example 109, 1-(6-(5-(Hydroxymethyl)-1,3,4-thiadiazol-2-yl)pyridazin-3-yl)-4-(4-(pentafluorosulfanyl)phenyl)piperidine-4-carbonitrile]	96%	88%
N#CC1(c2ccc(S(F)(F)(F)(F)F)cc2)CCN(c2ccc(-c3nc(CO)ns3)nn2)CC1 [Example 108, 1-(6-(3-(Hydroxymethyl)-1,2,4-thiadiazol-5-yl)pyridazin-3-yl)-4-(4-(pentafluorosulfanyl)phenyl)piperidine-4-carbonitrile]	100%	90%

Second part, led by results:

inhibition at 1 µM (SCD)	SMILES	inhibition at 1 µM (HCT116 cells)
98%	COC1(c2ccc(S(F)(F)(F)(F)F)cc2)CCN(c2ccc(-c3nc(CO)ns3)nn2)CC1 [Example 110, (5-(6-(4-Methoxy-4-(4-(pentafluorosulfanyl)phenyl)piperidin-1-yl)pyridazin-3-yl)-1,2,4-thiadiazol-3-yl)methanol]	89%
101%	COC1(c2ccc(S(F)(F)(F)(F)F)cc2)CCN(c2ccc(-c3nnc(CO)s3)nn2)CC1 [Example 111, (5-(6-(4-Methoxy-4-(4-(pentafluorosulfanyl)phenyl)piperidin-1-yl)pyridazin-3-yl)-1,3,4-thiadiazol-2-yl)methanol]	86%
97%	OCc1nsc(-c2ccc(N3CCC(c4ccc(C(F)(F)F)cc4)(C(F)(F)F)CC3)nn2)n1 [Example 112, (5-(6-(4-(Trifluoromethyl)-4-(4-(trifluoromethyl)phenyl)piperidin-1-yl)pyridazin-3-yl)-1,2,4-thiadiazol-3-yl)methanol]	90%
99%	OCc1nnc(-c2ccc(N3CCC(c4ccc(C(F)(F)F)cc4)(C(F)(F)F)CC3)nn2)s1 [Example 113, (5-(6-(4-(Trifluoromethyl)-4-(4-(trifluoromethyl)phenyl)piperidin-1-yl)pyridazin-3-yl)-1,3,4-thiadiazol-2-yl)methanol]	84%

Source: patent US20170015654A1, “PYRIDAZINE COMPOUND” (TAKEDA PHARMACEUTICAL COMPANY LIMITED, priority 2014, published 2017)
